Experimental data as given in US7998987B2, “Inhibitors of c-Met and uses thereof” (Vertex Pharmaceuticals Incorporated, priority 2005, dated 2011).
pKi: −log10 of the molar value.

Biological target: c-Met (Homo sapiens, UniProt P08581)
Test: Ki determination for the inhibition of c-Met kinase activity (standard coupled enzyme system)
Format: biochemical
Details: coupled enzyme system, 200 μM ATP, 80 nM c-Met, 30° C.; read-out: c-Met Ki
Method in brief: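 Continuous coupled-enzyme (PK/LDH, NADH depletion) assay with 80 nM c-Met, 200 μM ATP and 10 μM polyGluTyr in 100 mM HEPES pH 7.5, 10 mM MgCl2, 1.5% DMSO at 30 °C.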

Chain of c-Met (P08581 25-1390): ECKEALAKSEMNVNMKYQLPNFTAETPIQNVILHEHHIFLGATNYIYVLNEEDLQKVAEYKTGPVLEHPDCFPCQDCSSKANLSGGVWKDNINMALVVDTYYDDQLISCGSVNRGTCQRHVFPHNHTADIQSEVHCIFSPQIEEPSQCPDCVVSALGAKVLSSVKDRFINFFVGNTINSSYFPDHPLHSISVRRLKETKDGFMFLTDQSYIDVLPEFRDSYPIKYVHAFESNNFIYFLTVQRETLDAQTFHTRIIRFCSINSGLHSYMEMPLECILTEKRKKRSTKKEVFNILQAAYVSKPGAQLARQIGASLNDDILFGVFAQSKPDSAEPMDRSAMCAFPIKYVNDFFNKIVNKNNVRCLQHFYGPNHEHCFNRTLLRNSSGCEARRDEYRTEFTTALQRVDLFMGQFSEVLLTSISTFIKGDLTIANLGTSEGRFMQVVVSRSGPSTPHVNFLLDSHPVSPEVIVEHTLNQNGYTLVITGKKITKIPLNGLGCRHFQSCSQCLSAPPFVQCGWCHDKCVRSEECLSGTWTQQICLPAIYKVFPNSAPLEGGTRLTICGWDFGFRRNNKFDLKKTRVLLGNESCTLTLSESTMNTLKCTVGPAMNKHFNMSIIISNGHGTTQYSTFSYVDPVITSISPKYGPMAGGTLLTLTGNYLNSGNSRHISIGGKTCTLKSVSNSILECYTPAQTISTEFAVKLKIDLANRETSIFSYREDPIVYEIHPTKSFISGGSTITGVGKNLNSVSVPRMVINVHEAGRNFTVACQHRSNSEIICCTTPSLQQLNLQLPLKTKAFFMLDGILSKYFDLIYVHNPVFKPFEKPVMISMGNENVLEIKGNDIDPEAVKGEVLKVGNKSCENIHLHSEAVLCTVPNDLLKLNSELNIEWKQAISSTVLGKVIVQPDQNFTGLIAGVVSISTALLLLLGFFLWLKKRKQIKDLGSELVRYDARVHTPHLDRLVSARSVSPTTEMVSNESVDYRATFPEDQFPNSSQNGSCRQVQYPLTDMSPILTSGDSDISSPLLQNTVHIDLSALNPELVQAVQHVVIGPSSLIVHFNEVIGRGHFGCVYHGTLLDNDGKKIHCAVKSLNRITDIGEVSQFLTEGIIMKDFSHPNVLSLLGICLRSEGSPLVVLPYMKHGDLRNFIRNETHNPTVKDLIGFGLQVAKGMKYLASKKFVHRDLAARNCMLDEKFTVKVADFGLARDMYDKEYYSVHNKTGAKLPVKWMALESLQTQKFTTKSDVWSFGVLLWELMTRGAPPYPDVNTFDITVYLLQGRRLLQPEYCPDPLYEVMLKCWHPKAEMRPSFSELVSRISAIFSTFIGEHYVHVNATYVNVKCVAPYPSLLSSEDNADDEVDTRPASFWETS

Row | Structure (SMILES) | pKi
1 | CC(C)C(=O)N1CCC(Nc2ccc3nnc(Cc4ccc(O)cc4)n3n2)CC1 [Compound 324] | 5.70 to 7.00
2 | Fc1ccc(NCc2nnc3ccc(Nc4cccc(Cl)c4)nn23)c(Cl)c1 [Compound 342] | < 5.70
3 | O=C(Nc1ccc2nnc(Cc3ccc(O)cc3)n2n1)c1cccc(Cl)c1 [Compound 398] | < 5.70
4 | Clc1ccc(Cl)c(Nc2ccc3nnc(Cc4ccc5c(c4)OCO5)n3n2)c1 [Compound 363] | 5.70 to 7.00
5 | Clc1cccc(Nc2ccc3nnc(Cc4ccc(Cl)nc4)n3n2)c1 [Compound 354] | 5.70 to 7.00
6 | COC(=O)c1ccc(NCc2nnc3ccc(Nc4cccc(Cl)c4)nn23)nc1 [Compound 479] | 5.70 to 7.00
7 | COc1cc(OC)c(NCc2nnc3ccc(Nc4cccc(Cl)c4)nn23)cc1Cl [Compound 345] | < 5.70
8 | Oc1ccc(Cc2nnc3ccc(NC4CCC4)nn23)cc1 [Compound 330] | 5.70 to 7.00
9 | Clc1cccc(Nc2ccc3nnc(CNc4n[nH]c5ncccc45)n3n2)c1 [Compound 519] | > 7.00
10 | N#CCc1ccc(OCc2nnc3ccc(Nc4cccc(Cl)c4)nn23)cc1 [Compound 382] | < 5.70
11 | OCCc1cccc(Nc2ccc3nnc(Cc4ccc5c(c4)OCO5)n3n2)c1 [Compound 301] | 5.70 to 7.00
12 | CN1C2CCC1CC(Nc1ccc3nnc(Cc4ccc(O)cc4)n3n1)C2 (stereo not shown) [Compound 417] | < 5.70
13 | Clc1cccc(Nc2ccc3nnc(CNc4ccc5c(c4)OCO5)n3n2)c1 [Compound 347] | 5.70 to 7.00
14 | Oc1ccc(C2(c3nnc4ccc(Nc5ccnc(Cl)c5)nn34)CC2)cc1 [Compound 520] | > 7.00
15 | Fc1ccc(Cc2nnc3n2N=C(c2ccccc2)CS3)cc1 [Compound 527] | < 5.70
16 | Fc1ccc(OCc2nnc3ccc(Nc4cccc(Cl)c4)nn23)cn1 [Compound 453] | 5.70 to 7.00
17 | Nc1cc(F)ccc1OCc1nnc2ccc(Nc3cccc(Cl)c3)nn12 [Compound 432] | < 5.70
18 | Clc1cccc(Nc2ccc3nnc(Cn4ncc5ccccc54)n3n2)c1 [Compound 489] | < 5.70
19 | Oc1ccc(Cc2nnc3n2N=C(c2ccncc2)CS3)cc1 [Compound 538] | 5.70 to 7.00
20 | C[C@H](Nc1ccc2nnc(Cc3ccc(O)cc3)n2n1)c1ccccc1 [Compound 310] | 5.70 to 7.00
21 | Clc1cccc(Nc2ccc3nnc(COc4cccnc4Cl)n3n2)c1 [Compound 374] | 5.70 to 7.00
22 | Fc1ccc(Cc2nnc3ccc(Nc4cccc(Cl)c4)nn23)c(Cl)c1 [Compound 314] | 5.70 to 7.00
23 | Oc1ccc(Cc2nnc3ccc(Sc4cccc(Cl)c4)nn23)cc1 [Compound 305] | > 7.00
24 | CC1(C)CC(Nc2ccc3nnc(Cc4ccc(O)cc4)n3n2)CCO1 (stereo not shown) [Compound 302] | 5.70 to 7.00
25 | Fc1ccc2[nH]cc(Cc3nnc4ccc(Nc5cccc(Cl)c5)nn34)c2c1 [Compound 459] | < 5.70
26 | Nc1cc(OCc2nnc3ccc(Nc4cccc(Cl)c4)nn23)c2ccccc2n1 [Compound 466] | < 5.70
27 | N#Cc1ccc(OCc2nnc3ccc(Nc4cccc(Cl)c4)nn23)cc1 [Compound 379] | < 5.70
28 | O=C(Cc1nnc2ccc(Nc3cccc(Cl)c3)nn12)c1cccnc1 [Compound 316] | < 5.70

More lines, now with the values ahead:

Row | pKi | Structure (SMILES)
29 | 5.70 to 7.00 | C[C@@H](c1ccc(O)cc1)c1nnc2ccc(Nc3cc(Cl)ccc3OCCN3CCCC3)nn12 [Compound 443]
30 | < 5.70 | Cc1nc2cc(OCc3nnc4ccc(Nc5cccc(Cl)c5)nn34)ccc2s1 [Compound 431]
31 | > 7.00 | COc1cc(Cc2nnc3ccc(Nc4cccc(Cl)c4)nn23)ccc1O [Compound 442]
32 | 5.70 to 7.00 | C[C@@H](c1ccc(O)cc1)c1nnc2ccc(Nc3ccc(F)nc3)nn12 [Compound 510]
33 | > 7.00 | C[C@@H](c1ccc(O)cc1)c1nnc2ccc(Sc3nc4ccccc4[nH]3)nn12 [Compound 507]
34 | 5.70 to 7.00 | Oc1ccc(NCc2nnc3ccc(Nc4cccc(Cl)c4)nn23)cc1 [Compound 412]
35 | 5.70 to 7.00 | C[C@@H](c1ccc(O)cc1)c1nnc2ccc(Sc3nc[nH]n3)nn12 [Compound 508]
36 | 5.70 to 7.00 | C[C@@H](c1ccc(O)cc1)c1nnc2ccc(Nc3ccc(Cl)nn3)nn12 [Compound 512]
37 | > 7.00 | C[C@@H](c1ccc(O)cc1)c1nnc2ccc(Nc3cccc(Cl)c3)nn12 [Compound 320]
38 | 5.70 to 7.00 | CC(=O)Nc1cccc(OCc2nnc3ccc(Nc4cccc(Cl)c4)nn23)c1 [Compound 468]
39 | < 5.70 | CC(=O)N[C@H]1CCCC[C@@H]1Nc1ccc2nnc([C@@H](C)c3ccc(O)cc3)n2n1 [Compound 448]
40 | < 5.70 | COc1ccc(Cc2nnc3ccc(Nc4cccc(Cl)c4)nn23)cc1C(N)=O [Compound 496]
41 | > 7.00 | C[C@@H](c1ccc(O)cc1)c1nnc2ccc(NC3CC4CCC3C4)nn12 (stereo partly shown) [Compound 420]
42 | < 5.70 | Oc1ccccc1SCc1nnc2ccc(Nc3cccc(Cl)c3)nn12 [Compound 406]
43 | < 5.70 | C[C@@H](c1ccc(O)cc1)c1nnc2ccc(Sc3ncc[nH]3)nn12 [Compound 511]
44 | > 7.00 | C[C@@H](c1ccc(O)cc1)c1nnc2ccc(NC3CCCCC3)nn12 [Compound 419]
45 | > 7.00 | COc1ccc(Cc2nnc3ccc(Nc4cccc(C#N)c4)nn23)cc1 [Compound 287]

Same assay, conditions: coupled enzyme system, 200 μM ATP, 10 μM polyGluTyr, 80 nM c-Met, 30° C.; read-out: c-Met Ki

Row | Structure (SMILES) | pKi
46 | Oc1ccc(Cc2nnc3ccc(N4CCC[C@H]4CN4CCCC4)nn23)cc1 [Compound 200] | < 5.70
47 | c1ccc(-c2ccc3nnc(CNc4cccnc4)n3n2)cc1 [Compound 208] | < 5.70
48 | Oc1ccc(Cc2nnc3sc(Nc4cc(F)cc(F)c4)nn23)cc1F [Compound 131] | > 7.00
49 | CC1CCCC(Nc2ccc3nnc(Cc4ccc(O)cc4)n3n2)C1C (stereo not shown) [Compound 270] | 5.70 to 7.00
50 | CNC(=O)c1cccc(Nc2ccc3nnc(Cc4ccc5c(c4)OCO5)n3n2)c1 [Compound 236] | 5.70 to 7.00
51 | Oc1ccc(Cc2nnc3ccc(NC4c5ccccc5CC4O)nn23)cc1 (stereo not shown) [Compound 217] | 5.70 to 7.00
52 | COc1ccc(Cc2nnc3ccc(-c4ccccc4)nn23)cc1OC [Compound 206, 3-(3,4-dimethoxybenzyl)-6-phenyl-[1,2,4]triazolo[4,3-b]pyridazine] | < 5.70
53 | Oc1ccc(Cc2nnc3ccc(N[C@H]4CC[C@H](O)CC4)nn23)cc1 [Compound 272] | 5.70 to 7.00
54 | Oc1ccc(Cc2nnc3ccc(Nc4cccc(Cl)c4)nn23)cc1Cl [Compound 237] | > 7.00
55 | FC(F)(F)c1cccc(Nc2ccc3nnc(Cc4ccc5c(c4)OCO5)n3n2)c1 [Compound 226] | 5.70 to 7.00
56 | Cc1cc(C)cc(Nc2ccc3nnc(Cc4ccc5c(c4)OCO5)n3n2)c1 [Compound 248] | 5.70 to 7.00
57 | Oc1ccc(Cc2nnc3ccc(NCCN4CCOCC4)nn23)cc1 [Compound 204] | < 5.70
58 | Oc1ccc(Cc2nnc3ccc(Nc4cccc(C(F)(F)F)c4)nn23)cc1Cl [Compound 224] | > 7.00
59 | CN(C)c1ccc(Cc2nnc3ccc(-c4ccccc4)nn23)cc1 [Compound 212] | < 5.70
60 | Oc1ccc(Cc2nnc3ccc(-c4ccccc4)nn23)cc1F [Compound 213] | 5.70 to 7.00
61 | CCC(CC)Nc1ccc2nnc(Cc3ccc(O)cc3)n2n1 [Compound 281] | 5.70 to 7.00

Further lines, results first:

Row | pKi | Structure (SMILES)
62 | > 7.00 | Oc1ccc(Cc2nnc3ccc(Nc4ccccc4)nn23)cc1 [Compound 178]
63 | 5.70 to 7.00 | COc1cccc(Nc2nn3c(Cc4ccc(O)c(OC)c4)nnc3s2)c1 [Compound 38]
64 | > 7.00 | CC(C)Oc1cccc(Nc2ccc3nnc(Cc4ccc(O)cc4)n3n2)c1 [Compound 181]
65 | 5.70 to 7.00 | Clc1ccc(Nc2nn3c(Cc4ccc5c(c4)OCO5)nnc3s2)cc1 [Compound 56]
66 | 5.70 to 7.00 | CCC(C)c1ccc(Nc2ccc3nnc(Cc4ccc(O)cc4)n3n2)cc1 (stereo not shown) [Compound 183]
67 | < 5.70 | Oc1ccc(Cc2nnc3sc(NC4CC4)nn23)cc1 [Compound 19]
68 | 5.70 to 7.00 | Oc1ccc(Cc2nnc3sc(Nc4ccccc4Cl)nn23)cc1F [Compound 79]
69 | 5.70 to 7.00 | Oc1ccc(Cc2nnc3sc(Nc4cccc(Cl)c4F)nn23)cc1F [Compound 130]
70 | > 7.00 | CC(c1ccc(O)cc1)c1nnc2sc(Nc3cccc(Cl)c3F)nn12 (stereo not shown) [Compound 132]
71 | > 7.00 | Oc1ccc(Cc2nnc3sc(Nc4ccc(C(F)(F)F)cc4)nn23)cc1 [Compound 43]
72 | 5.70 to 7.00 | COc1cc(Cc2nnc3sc(Nc4ccccc4)nn23)ccc1O [Compound 26]
73 | > 7.00 | FC(F)(F)c1cccc(Nc2nn3c(Cn4ccc5ncccc54)nnc3s2)c1 [Compound 136]
74 | > 7.00 | COc1cccc(Nc2nn3c(C(C)c4ccc(O)cc4)nnc3s2)c1 (stereo not shown) [Compound 37]
75 | 5.70 to 7.00 | COc1ccc(Cc2nnc3sc(-c4cccs4)nn23)cc1 [Compound 22]
76 | > 7.00 | C[C@@H](c1ccc(OC(=O)[C@@H](C)N)cc1)c1nnc2sc(Nc3cccc(F)c3)nn12 [Compound 166]
77 | 5.70 to 7.00 | Oc1ccc(Cc2nnc3sc(Nc4cccnc4)nn23)cc1F [Compound 83]
78 | 5.70 to 7.00 | Oc1ccc(Cc2nnc3sc(Nc4cccc(F)c4Cl)nn23)cc1Cl [Compound 103]
79 | 5.70 to 7.00 | Oc1ccc(Cc2nnc3sc(NCc4ccccc4)nn23)cc1 [Compound 8]
80 | 5.70 to 7.00 | c1cncc(Nc2nn3c(Cc4ccc5c(c4)OCO5)nnc3s2)c1 [Compound 84]
81 | < 5.70 | CC(Oc1ccc2ncccc2c1)c1nnc2sc(Nc3cccc(Cl)c3)nn12 (stereo not shown) [Compound 163]
82 | 5.70 to 7.00 | Oc1cccc(Cc2nnc3sc(Nc4cccc(C(F)(F)F)c4)nn23)c1 [Compound 137]
83 | < 5.70 | CC(c1ccc(O)cc1)c1nnc2sc(C(N)=O)nn12 (stereo not shown) [Compound 88]
84 | > 7.00 | Cc1cccc(Nc2nn3c(Cc4ccc(O)cc4)nnc3s2)c1 [Compound 44]
85 | > 7.00 | COC(=O)c1ccc(Nc2nn3c(Cc4ccc(O)cc4)nnc3s2)cc1 [Compound 16]
86 | > 7.00 | CC(C)(C)c1cccc(Nc2ccc3nnc(Cc4ccc(O)cc4)n3n2)c1 [Compound 182]
87 | > 7.00 | COc1ccc(Nc2nn3c(Cc4ccc(O)cc4)nnc3s2)cc1 [Compound 80]
88 | < 5.70 | Clc1ccc(Cc2nnc3sc(Nc4cccc(Cl)c4)nn23)cc1 [Compound 91]
